Laboratory results: the OPERA property sets (Mansouri et al. 2018)
Values after ≈ are worked out from the molar mass of the structure shown.

Conditions: not given

Compound | logP | solubility
Brc1cccc(-c2ccccc2)c1 | 4.85 | –
CC(C)(C#N)Nc1nc(Cl)nc(NC2CC2)n1 | 1.99 | –
O=[N+]([O-])c1ccc(Oc2c(Cl)cc(Cl)cc2Cl)cc1 | 4.97 | –
CCC(=O)CC | – | 558 mM (≈ 48100 µg/mL)
CCCC(C)CCC(C)=O (configuration not stated) | 2.92 | –
COc1ccc2oc(N(N)CCC#N)nc2c1 | 0.98 | –
Cc1nc(NCCCO)c(C#N)cc1-c1ccccc1 | 2.72 | –
ClC1=CC2(Cl)C3C(Cl)C(Cl)C(Cl)C3C1(Cl)C2(Cl)Cl (configuration not stated) | 5.91 | –
NS(=O)(=O)c1cccc2ccccc12 | 1.55 | –
Cc1ccc(C(C)C)c(Cl)c1Cl | 5.5 | –
c1ccc2sc(SN(C3CCCCC3)C3CCCCC3)nc2c1 | 4.8 | 0.000163 mM (≈ 0.0564 µg/mL)
CCCCOCCNc1ccccc1C(N)=O | 2.27 | –
COc1ccc([N+](=O)[O-])cc1NC(C)=O | 1.6 | –
CC(C)(C)C1CCC(O)CC1 (configuration not stated) | 3.23 | –
Cc1cc(Cc2ccc(Cl)c(Cl)c2)c(Cl)cc1Cl | 7.26 | –
Nc1cnn(-c2ccccc2)c(=O)c1Cl | 1.14 | –
CCCOC(=O)NCCCN(C)C | 1.12 | –
c1ccc(Cn2ccnc2)cc1 | 1.6 | –
ClC1=C(Cl)C2(Cl)C3C(Cl)C(Cl)CC3C1(Cl)C2(Cl)Cl (configuration not stated) | 6.16 | –

Same assay, conditions: 20 °C

Compound | solubility
CCOC(C)(C)CC | 3.44 mM (≈ 400 µg/mL)
N=C(N)N | 31.1 mM (≈ 1840 µg/mL)
CCN(C)N=O | 3400 mM (≈ 300000 µg/mL)
COc1cc(C(Cl)(Cl)Cl)cc(Cl)n1 | 0.0433 mM (≈ 11.3 µg/mL)
CCCC(CCC)C(=O)O | 13.9 mM (≈ 2000 µg/mL)
NC(=O)c1ccccc1C(N)=O | 3.66 mM (≈ 600 µg/mL)
CCOC(=O)C(O)(c1ccc(Cl)cc1)c1ccc(Cl)cc1 | 0.0351 mM (≈ 11.4 µg/mL)
C=C(C)[C@H]1Cc2c(ccc3c2O[C@@H]2COc4cc(OC)c(OC)cc4[C@@H]2C3=O)O1 | 0.000507 mM (≈ 0.2 µg/mL)
CC(C)(C)C1CCC(O)CC1 (configuration not stated) | 0.64 mM (≈ 100 µg/mL)

Same assay, conditions: 22 °C

Compound | solubility
CCCCC(CC)COC(=O)CCCCC(=O)OCC(CC)CCCC (configuration not stated) | 0.0021 mM (≈ 0.78 µg/mL)
CCOC(=O)CC(SP(=O)(OC)OC)C(=O)OCC (configuration not stated) | 23.9 mM (≈ 7500 µg/mL)
O=[N+]([O-])c1ccc(Oc2c(Cl)cc(Cl)cc2Cl)cc1 | 0.0024 mM (≈ 0.764 µg/mL)

Same assay, conditions: 23 °C

Compound | solubility
CCC(C#N)CC#N (configuration not stated) | 203 mM (≈ 22000 µg/mL)

Same assay, conditions: 23.0 °C

Compound | log10 OH rate constant (cm³/molecule/s)
CC(=O)CCC=C(C)C | -9.8
C=C1[C@H]2CC[C@@H]3[C@H]2C(C)(C)CCC[C@]13C | -10.3

Same assay, conditions: 24 °C

Compound | solubility
N#CSCSc1nc2ccccc2s1 | 0.524 mM (≈ 125 µg/mL)
CCCCN(CC)N=O | 92.2 mM (≈ 12000 µg/mL)

Same assay, conditions: 24.0 °C

Compound | log10 OH rate constant (cm³/molecule/s)
C[Si]1(C)O[Si](C)(C)O[Si](C)(C)O[Si](C)(C)O1 | -12
c1ccc2ncccc2c1 | -10.9
CCOCCC(=O)OCC | -10.6

Same assay, conditions: 25 °C

Compound | solubility
Brc1ccc(Br)c(-c2cc(Br)c(Br)cc2Br)c1 | 1.88e-07 mM (≈ 0.000103 µg/mL)
OCc1cccc2ccccc12 | 18 mM (≈ 2850 µg/mL)
NC(N)=O | 9070 mM (≈ 545000 µg/mL)
Cc1ccc2c(c1N)C(=O)c1ccccc1C2=O | 0.0014 mM (≈ 0.332 µg/mL)
COC(=O)COc1ccc(Cl)cc1Cl | 1.1 mM (≈ 258 µg/mL)
CC(C)N(C(=O)SCC(Cl)=CCl)C(C)C | 0.0518 mM (≈ 14 µg/mL)
OCC(Br)CBr (configuration not stated) | 239 mM (≈ 52000 µg/mL)
c1ccc2ncccc2c1 | 47.3 mM (≈ 6110 µg/mL)
O=C(O)c1cccc(C(=O)O)n1 | 29.9 mM (≈ 5000 µg/mL)
Cc1ccccc1C | 1.68 mM (≈ 178 µg/mL)
Clc1ccc(/N=N/c2ccccc2)cc1 | 0.00198 mM (≈ 0.43 µg/mL)
Brc1cc(Br)c(OCCOc2c(Br)cc(Br)cc2Br)c(Br)c1 | 0.000291 mM (≈ 0.2 µg/mL)
CC(C)(C)c1cccc(O)c1 | 13.8 mM (≈ 2070 µg/mL)
CCCc1ccc(O)cc1 | 9.38 mM (≈ 1280 µg/mL)
O=c1n(Cl)c(=O)n(Cl)c(=O)n1Cl | 51.6 mM (≈ 12000 µg/mL)
O=[N+]([O-])c1ccc(Nc2ccc(O)cc2)c([N+](=O)[O-])c1 | 0.0036 mM (≈ 0.99 µg/mL)
CCCc1ccccc1 | 0.434 mM (≈ 52.2 µg/mL)
CC1COCc2cc3c(cc21)C(C)(C)C(C)C3(C)C (configuration not stated) | 0.00677 mM (≈ 1.75 µg/mL)
CC1(C)[C@H]2CC[C@](C)(C2)[C@H]1O | 5.37 mM (≈ 828 µg/mL)
Nc1ccc(Cc2ccc(N)cc2)cc1 | 5.04 mM (≈ 1000 µg/mL)
CCCCCCCCCCCCC | 2.55e-05 mM (≈ 0.0047 µg/mL)
Cc1ccc(O)c(C)c1 | 64.4 mM (≈ 7870 µg/mL)
O=C(Oc1ccccc1)c1ccccc1C(=O)Oc1ccccc1 | 0.000258 mM (≈ 0.082 µg/mL)
CCN(CCO)c1ccccc1 | 12.1 mM (≈ 2000 µg/mL)
C=C(C)C(=O)OCC | 47.3 mM (≈ 5400 µg/mL)
C=C(C)C(=O)OC(C)(C)C | 7.03 mM (≈ 1000 µg/mL)
ClC1=C(Cl)C2(Cl)C3C(Cl)C(Cl)CC3C1(Cl)C2(Cl)Cl (configuration not stated) | 0.000137 mM (≈ 0.056 µg/mL)

Same assay, conditions: 25.0 °C

Compound | log10 OH rate constant (cm³/molecule/s)
CCCCCC(C)=O | -10.9
FC(F)=C(F)C(F)(F)F | -11.7
FC(F)C(F)(F)OCC(F)(F)F | -13
Cc1ccccc1C | -10.9
CC12CCC(CC1)C(C)(C)O2 | -11
COC(=O)OC | -12.5
CCCCCCCl | -11.4
FC(C(F)(F)F)C(F)(F)F | -14.8
FC(Br)C(F)(F)F (configuration not stated) | -13.8
OCCOCCO | -10.5

Same assay, conditions: 27.0 °C

Compound | log10 OH rate constant (cm³/molecule/s)
Cc1cccc(O)c1O | -9.69

Same assay, conditions: 30 °C

Compound | solubility
Fc1ccccc1 | 16 mM (≈ 1540 µg/mL)
CN(C)C | 15100 mM (≈ 890000 µg/mL)
Nc1ccccc1[N+](=O)[O-] | 10.6 mM (≈ 1470 µg/mL)

Same assay, conditions: pH 7.4

Compound | logD
N[C@@H](Cc1ccc(N(CCCl)CCCl)cc1)C(=O)O | -0.52
